The source of these data is patent US11945834B2, “Cyclic dinucleotides as anticancer agents” (BRISTOL-MYERS SQUIBB COMPANY, priority 2018, dated 2024).

Like-named read-outs stand apart in the source and are kept apart here. Where only a bound is given, the exact number is not on record here.

Assay [1] has as its target T1, STING AQ: His-TVMV-S-hSTING(155-341)-G230A-R293Q (Homo sapiens, UniProt Q86WV6, G230A/H232R/R293Q).
T1 construct: STING AQ: His-TVMV-S-hSTING(155-341)-G230A-R293Q
Kind of assay: STING HTRF binding assay, STING AQ. As to conditions: 20 nM His-tagged STING cytoplasmic domain AQ, 40 nM fluorescein-labeled cGAMP analog probe, one hour; read-out: HTRF Binding Assays IC50 (μM) AQ. How it is done:
(§1) A time resolved FRET-based competition binding assay was used to assess test article binding to STING WT and STING AQ. His-tagged STING cytoplasmic domain (WT or AQ) at a concentration of 20 nM was incubated with 2.5 nM Tb-labeled anti-His antibody, test compound, and fluorescein-labeled cGAMP analog probe (BioLog cat. no. C195) at a concentration of 200 nM (STING WT) or 40 nM (STING AQ) in PBS containing 0.005% Tween-20 and 0.1% BSA for one hour. Fluorescence at 495 nm and 520 nm was measured using an EnVision microplate reader to quantify FRET between Tb-labeled anti-His antibody and fluorescein-labeled probe. Background was defined as the signal obtained in the absence of STING protein, and background subtracted FRET ratios were normalized to the maximum signal obtained in the absence of test compound. These values were converted to a percent inhibition. Percent inhibition was determined for test compounds at 11 concentrations. The IC50, defined as the concentration of competing test compound needed to reduce specific binding of the probe by 50%, was calculated using the 4 parameter logistic equation to fit the data

The target of assay [2] is T2, STING WT: His-TVMV-S-hSTING(155-341)-H232R (Homo sapiens, UniProt Q86WV6, H232R).
T2 construct: STING WT: His-TVMV-S-hSTING(155-341)-H232R
Kind of assay: STING HTRF binding assay, STING WT. As to conditions: 20 nM His-tagged STING cytoplasmic domain WT, 200 nM fluorescein-labeled cGAMP analog probe, one hour; read-out: HTRF Binding Assays IC50 (μM) WT. How it is done:
as §1
In general terms: Time-resolved FRET reads energy transfer from a long-lived donor to a nearby acceptor.

Assay [3] has as its system IRF pathway in THP1-Dual cells (STING agonists). The experiment in a line: STING THP1 reporter assay, IRF pathway (Lucia luciferase). The assay is classed as cell-based. The note with it: 10% human plasma, luciferase readout, 100% = 100 μM cGAMP, read-out: THP1 Reporter Assays EC50 (μM) IRF3. From the text:
(§2) THP1-Dual™ cells were derived from the human THP-1 monocyte cell line by stable integration of two inducible reporter constructs. To this end, THP1-Dual™ cells allow the simultaneous study of the NF-κB pathway, by monitoring the activity of SEAP, and the IRF pathway by assessing the activity of a secreted luciferase (Lucia). Both reporter proteins are readily measurable in the cell culture supernatant when using QUANTI-Blue™, a SEAP detection reagent, and QUANTI-Luc™, a luciferase detection reagent.
(§3) THP1-Dual™ cells induce the activation of NF-κB in response to STING agonists. They also trigger the IRF pathway upon stimulation with STING agonists, such as cGAMP. Here, the THP-1-Dual cells were used to assess STING binders for function on the cellular level.
(§4) Serial dilutions of compounds in DMSO were added to low volume 384 well plates at 100 nl/well using an ECHO acoustic dispenser (Labcyte, model 550) to achieve final starting concentration of 100 μM in cell suspension. THP-1 Dual™ STING reporter cells (Invivogen, Dual cells cat #THPD-nfis) were added to the plates with compounds at 15,000 cells in 10 μL per well in RPMI media (Gibco, cat #11875) containing 10% human plasma in a low volume 384-well black wall clear bottom tissue culture plate (Corning, cat #3542) for SEAP assay and low volume solid white plate (Corning, cat #3826) for luciferase assay. One column of the plate was reserved for treatment with cGAMP at 100 μM for 100% activation calculation and one column for no treatment (DMSO only) for baseline activation. Plates were then incubated in 37° C. incubator at 5% CO2 for 20 hours.
(§5) In the SEAP assay, 5 μl of 2× QuantiBlue (Invivogen, cat #Rep-qb2) is added to 384 well black plates seeded with THP1 cells and incubated at 37° C. for 2 hours. Plates were read on the Envision (Perkin Elmer) at 620 nm wavelength (OD620). In the luciferase assay, 5 μl of Quantiluc (Invivogen, Rep-qlc2) is added to white 384 well plates seeded with THP1 cells and read at 5 minutes on the Envision (Perkin Elmer) using a luminescence protocol (RLU). For both cell lines, 100% activation was determined by value (RLU) of THP-1 Dual STING cells stimulated with 100 μM cGAMP (Invivogen, cat #TLRL-NACGA23-5).
Background: A reporter such as luciferase makes a cellular process visible.

For assay [4], the system named is NF-κB pathway in THP1-Dual cells (STING agonists). The experiment in a line: STING THP1 reporter assay, NF-κB pathway (SEAP). The note with it: 10% human plasma, SEAP readout, 100% = 100 μM cGAMP, read-out: THP1 Reporter Assays EC50 (μM) NFkB. The assay is classed as cell-based.
Excerpt: as §2, §3, §4, §5

T1 sequence (Q86WV6 with tags, fused parts or gaps G230A/H232R/R293Q): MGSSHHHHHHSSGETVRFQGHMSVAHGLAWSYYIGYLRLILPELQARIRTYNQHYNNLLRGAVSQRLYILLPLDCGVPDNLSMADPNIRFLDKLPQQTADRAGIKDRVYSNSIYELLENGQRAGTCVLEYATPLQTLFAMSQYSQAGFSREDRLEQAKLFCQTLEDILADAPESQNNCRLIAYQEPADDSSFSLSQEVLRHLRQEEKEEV
T2 sequence (Q86WV6 with tags, fused parts or gaps H232R): as the sequence (Q86WV6 with tags, fused parts or gaps G230A/H232R/R293Q) above, with A99G, Q162R counted along it

In the case of `NC(=O)c1cc([C@@H]2O[C@@H]3COP(=O)(S)O[C@H]4[C@@H](F)[C@H](n5cnc6c(N)ncnc65)O[C@@H]4COP(=O)(S)O[C@@H]2[C@@H]3O)ccn1` (single isomer, unassigned) [Example 1-1], the IC50 in assay [1] was 0.01 µM; in assay [2] it was 0.09 µM. In addition, the half-maximal effective concentration (EC50) in assay [3] (Homo sapiens, THP1-Dual, 20 h) was determined as 4.94 µM; in assay [4] (Homo sapiens, THP1-Dual, 20 h) it was 8.05 µM.

With `NC(=O)c1cc([C@@H]2O[C@@H]3COP(=O)(S)O[C@H]4[C@@H](F)[C@H](n5cnc6c(N)ncnc65)O[C@@H]4COP(=O)(S)O[C@@H]2[C@@H]3F)ccn1` (single isomer, unassigned) [Example 4-1], the values for the half-maximal inhibitory concentration (IC50) in assay [1] and in assay [2] were 0.05 µM and 0.66 µM, respectively. For the same compound, the half-maximal effective concentration (EC50) in assay [3] (20 hours) came out at 19 µM; in assay [4] (20 hours), 57.1 µM.

Turning to `C=C1[C@H]2OP(=O)(S)OC[C@H]3O[C@@H](n4cnc5c(N)ncnc54)[C@H](F)[C@@H]3OP(=O)(S)OC[C@H]1O[C@H]2c1ccnc(C(N)=O)c1` (single isomer, unassigned) [Example 3-1], the values for the IC50 in assay [1] and in assay [2] were 0.04 µM and 0.78 µM, respectively. Moreover, the figures for the EC50 in assay [3] (20 hours) and in assay [4] (20 hours) were 9.23 µM and 22.6 µM, respectively.

In the case of `CNC(=O)c1cc([C@@H]2O[C@@H]3COP(=O)(S)O[C@H]4[C@@H](F)[C@H](n5cnc6c(N)ncnc65)O[C@@H]4COP(=O)(S)O[C@@H]2[C@@H]3O)ccn1` (single isomer, unassigned) [Example 2-1], the results for the IC50 in assay [1] and in assay [2] were 0.6 µM and 10.3 µM, respectively. The concentration for a half-maximal effect (EC50) in assay [3] (Homo sapiens, THP1-Dual, 20 h) is above 100 µM; in assay [4] (Homo sapiens, THP1-Dual, 20 h), above 100 µM.

As for `C=C1[C@H]2OP(=O)(S)OC[C@H]3O[C@@H](n4cnc5c(N)ncnc54)[C@H](F)[C@@H]3OP(=O)(S)OC[C@H]1O[C@H]2c1ccnc(C(N)=O)c1` (single isomer, unassigned) [Example 3-2], the IC50 in assay [1] amounted to 1.64 µM; in assay [2] it was 40.9 µM. Besides, the EC50 in assay [3] (20 hours) and in assay [4] (20 hours) was above 100 µM in each case.

As for `C=C1[C@H]2OP(=O)(S)OC[C@H]3O[C@@H](n4cnc5c(N)ncnc54)[C@H](F)[C@@H]3OP(=O)(S)OC[C@H]1O[C@H]2c1ccnc(C(N)=O)c1` (single isomer, unassigned) [Example 3-3], the IC50 came to 1.03 µM in assay [1] and 14.4 µM in assay [2]. Besides, the EC50 in assay [3] (20 hours) and in assay [4] (20 hours) was above 100 µM throughout.

`NC(=O)c1cc([C@@H]2O[C@@H]3COP(=O)(S)O[C@H]4[C@@H](F)[C@H](n5cnc6c5ncn5ccnc65)O[C@@H]4COP(=O)(S)O[C@@H]2[C@@H]3O)ccn1` (single isomer, unassigned) [Example 5-2]: the half-maximal inhibitory concentration (IC50) in assay [1] came out at 14 µM; in assay [2] it was 93.4 µM. Besides, the EC50 in assay [3] (Homo sapiens, THP1-Dual, 20 h) is 0.14 µM; in assay [4] (Homo sapiens, THP1-Dual, 20 h) it was 0.38 µM.

Take `C=C1[C@H]2OP(=O)(S)OC[C@H]3O[C@@H](n4cnc5c(N)ncnc54)[C@H](F)[C@@H]3OP(=O)(S)OC[C@H]1O[C@H]2c1ccnc(C(N)=O)c1` (single isomer, unassigned) [Example 3-4]: the IC50 in assay [1] stood at 0.09 µM; in assay [2], 1.21 µM. For the same compound, the EC50 in assay [3] (20 hours) was 7.4 µM; in assay [4] (20 hours), 19.3 µM.

On to `CNC(=O)c1cc([C@@H]2O[C@@H]3COP(=O)(S)O[C@H]4[C@@H](F)[C@H](n5cnc6c(N)ncnc65)O[C@@H]4COP(=O)(S)O[C@@H]2[C@@H]3O)ccn1` (single isomer, unassigned) [Example 2-4], for which the IC50 in assay [1] came out at 4.85 µM; in assay [2], 92.3 µM. Further, in assay [3] (20 hours), the EC50 was above 100 µM.

Turning to `NC(=O)c1cc([C@@H]2O[C@@H]3COP(=O)(S)O[C@H]4[C@@H](F)[C@H](n5cnc6c(N)ncnc65)O[C@@H]4COP(=O)(S)O[C@@H]2[C@@H]3F)ccn1` (single isomer, unassigned) [Example 4-2], the IC50 in assay [1] came out at 0.03 µM; in assay [2] it was 0.09 µM. In addition, the results for the concentration giving a half-maximal response (EC50) in assay [3] (20 hours) and in assay [4] (20 hours) were 0.37 µM and 1.32 µM, respectively.

Usually IC50 stands for the concentration needed to halve the response being measured. By EC50 is commonly meant the concentration needed to bring the measured effect to its halfway point.
